From the supplement of paper PMC10307832

Legend:
Experiment in all cases: relative viability (nuclei count vs DMSO), 5 days (fraction); higher = more cells survive
[1] = test system: LK-2
Procedure, shortened: (§1)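 For relative viability, nuclei counts in treated wells were divided by those in vehicle wells. Lung cancer cell lines had been pin-tool dosed in 1536-well plates the day after seeding and cultured for 5 days, then fixed and stained in one step (final 0.05% Triton X-100, 1% formaldehyde, 1 ug/ml Hoechst) and imaged at 4×. Doses were one drug alone or a fixed anchor-drug dose plus five library-drug doses (not always all listed) in √10 steps, and values are duplicate-plate medians.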

[2] = test system: NCI-H460
Procedure, shortened: as §1

[3] = test system: NCI-H322M
Procedure, shortened: as §1

[4] = test system: NCI-H727
Procedure, shortened: as §1

[5] = test system: NCI-H2023
Procedure, shortened: as §1

[6] = test system: HCC-44
Procedure, shortened: as §1

[7] = test system: NCI-H1651
Procedure, shortened: as §1

[8] = test system: EKVX
Procedure, shortened: as §1

[9] = test system: NCI-H838
Procedure, shortened: as §1

[10] = test system: LU99A
Procedure, shortened: as §1

[11] = test system: BEN
Procedure, shortened: as §1

Compound: CCNC(=O)c1noc(-c2cc(C(C)C)c(O)cc2O)c1-c1ccc(CN2CCOCC2)cc1 [Luminespib] + CC(=O)Nc1cccc(-n2c(=O)n(C3CC3)c(=O)c3c(Nc4ccc(I)cc4F)n(C)c(=O)c(C)c32)c1 [Trametinib] (partner 0.02 µM)
- relative viability ([1]; first compound 0.002 µM): 0.834
- relative viability ([1]; first compound 0.006325 µM): 0.711
- relative viability ([1]; first compound 0.02 µM): 0.637
- relative viability ([1]; first compound 0.06325 µM): 0.164
- relative viability ([1]; first compound 0.2 µM): 0.166
- relative viability ([2]; first compound 0.002 µM): 0.205
- relative viability ([2]; first compound 0.006325 µM): 0.124
- relative viability ([2]; first compound 0.02 µM): 0.0112
- relative viability ([2]; first compound 0.06325 µM): 0.0128
- relative viability ([2]; first compound 0.2 µM): 0.0152
- relative viability ([3]; first compound 0.002 µM): 0.494
- relative viability ([3]; first compound 0.006325 µM): 0.535
- relative viability ([3]; first compound 0.02 µM): 0.453
- relative viability ([3]; first compound 0.06325 µM): 0.456
- relative viability ([3]; first compound 0.2 µM): 0.407
- relative viability ([4]; first compound 0.002 µM): 0.422
- relative viability ([4]; first compound 0.006325 µM): 0.397
- relative viability ([4]; first compound 0.02 µM): 0.404
- relative viability ([4]; first compound 0.06325 µM): 0.247
- relative viability ([4]; first compound 0.2 µM): 0.253
- relative viability ([5]; first compound 0.002 µM): 0.49
- relative viability ([5]; first compound 0.006325 µM): 0.56
- relative viability ([5]; first compound 0.02 µM): 0.39
- relative viability ([5]; first compound 0.06325 µM): 0.0742
- relative viability ([5]; first compound 0.2 µM): 0.0679
- relative viability ([6]; first compound 0.002 µM): 0.979
- relative viability ([6]; first compound 0.006325 µM): 1.19
- relative viability ([6]; first compound 0.02 µM): 1.24
- relative viability ([6]; first compound 0.06325 µM): 0.982
- relative viability ([6]; first compound 0.2 µM): 0.775
- relative viability ([7]; first compound 0.002 µM): 0.787
- relative viability ([7]; first compound 0.006325 µM): 0.798
- relative viability ([7]; first compound 0.02 µM): 0.634
- relative viability ([7]; first compound 0.06325 µM): 0.754
- relative viability ([7]; first compound 0.2 µM): 0.609
- relative viability ([8]; first compound 0.002 µM): 0.391
- relative viability ([8]; first compound 0.006325 µM): 0.326
- relative viability ([8]; first compound 0.02 µM): 0.219
- relative viability ([8]; first compound 0.06325 µM): 0.165
- relative viability ([8]; first compound 0.2 µM): 0.122
- relative viability ([9]; first compound 0.002 µM): 0.582
- relative viability ([9]; first compound 0.006325 µM): 0.474
- relative viability ([9]; first compound 0.02 µM): 0.294
- relative viability ([9]; first compound 0.06325 µM): 0.093
- relative viability ([9]; first compound 0.2 µM): 0.134
- relative viability ([10]; first compound 0.002 µM): 0.534
- relative viability ([10]; first compound 0.006325 µM): 0.493
- relative viability ([10]; first compound 0.02 µM): 0.378
- relative viability ([10]; first compound 0.06325 µM): 0.482
- relative viability ([10]; first compound 0.2 µM): 0.507
- relative viability ([11]; first compound 0.002 µM): 1.11
- relative viability ([11]; first compound 0.006325 µM): 1
